≈ marks a conversion by molar mass, not a printed value.
Tests used:
[1] = tested on: Staphylococcus epidermidis; assay: Antibacterial activity against methicillin-sensitive Staphylococcus epidermidis ATCC 12228 after 18 hrs by CLSI broth microdilution method; assay type: functional; settings: ATCC 12228, 18 h
[2] = tested on: Staphylococcus epidermidis; assay: Antibacterial activity against methicillin-resistant Staphylococcus epidermidis 12-8 after 18 hrs by CLSI broth microdilution method; assay type: functional; settings: 12-8, 18 h
Staphylococcus aureus [3] = assay: Antibacterial activity against methicillin-sensitive Staphylococcus aureus ATCC 29213 after 18 hrs by CLSI broth microdilution method; assay type: functional; settings: ATCC 29213, 18 h
Staphylococcus aureus [4] = assay: Antibacterial activity against methicillin-resistant Staphylococcus aureus 12-33 after 18 hrs by CLSI broth microdilution method; assay type: functional; settings: 12-33, 18 h
Enterococcus faecalis [5] = assay: Antibacterial activity against vancomycin-sensitive Enterococcus faecalis ATCC 29212 after 18 hrs by CLSI broth microdilution method; assay type: functional; settings: ATCC 29212, 18 h
Enterococcus faecalis [6] = assay: Antibacterial activity against vancomycin-resistant Enterococcus faecalis 09-9 after 18 hrs by CLSI broth microdilution method; assay type: functional; settings: 09-9, 18 h
Enterococcus faecium [7] = assay: Antibacterial activity against vancomycin-resistant Enterococcus faecium ATCC 700221 after 18 hrs by CLSI broth microdilution method; assay type: functional; settings: ATCC 700221, 18 h
Enterococcus faecium [8] = assay: Antibacterial activity against vancomycin-sensitive Enterococcus faecium 12-3 after 18 hrs by CLSI broth microdilution method; assay type: functional; settings: 12-3, 18 h
Escherichia coli [9] = assay: Antibacterial activity against extended-spectrum beta-lactamase deficient Escherichia coli ATCC 25922 after 18 hrs by CLSI broth microdilution method; assay type: functional; settings: ATCC 25922, 18 h
Escherichia coli [10] = assay: Antibacterial activity against extended-spectrum beta-lactamase harboring Escherichia coli 12-15 after 18 hrs by CLSI broth microdilution method; assay type: functional; settings: 12-15, 18 h
Klebsiella pneumoniae [11] = assay: Antibacterial activity against extended-spectrum beta-lactamase harboring Klebsiella pneumoniae ATCC 700603 after 18 hrs by CLSI broth microdilution method; assay type: functional; settings: Klebsiella pneumoniae, 700603, 18 h
Klebsiella pneumoniae [12] = assay: Antibacterial activity against new delhi metallo-beta-lactamase-1 harboring Klebsiella pneumoniae ATCC BAA-2146 after 18 hrs by CLSI broth microdilution method; assay type: functional; settings: ATCC BAA-2146, 18 h
Klebsiella pneumoniae [13] = assay: Antibacterial activity against extended-spectrum beta-lactamase harboring Klebsiella pneumoniae 12-8 after 18 hrs by CLSI broth microdilution method; assay type: functional; settings: 12-8, 18 h
Pseudomonas aeruginosa [14] = assay: Antibacterial activity against Pseudomonas aeruginosa ATCC 27853 after 18 hrs by CLSI broth microdilution method; assay type: functional; settings: ATCC 27853, 18 h
[15] = tested on: Acinetobacter calcoaceticus; assay: Antibacterial activity against Acinetobacter calcoaceticus ATCC 19606 after 18 hrs by CLSI broth microdilution method; assay type: functional; settings: ATCC 19606, 18 h
Enterobacter cloacae = assay: Antibacterial activity against Enterobacter cloacae ATCC 43560 after 18 hrs by CLSI broth microdilution method; assay type: functional; settings: ATCC 43560, 18 h
Proteus mirabilis = assay: Antibacterial activity against Proteus mirabilis 12-6 after 18 hrs by CLSI broth microdilution method; assay type: functional; settings: 12-6, 18 h
[16] = Cytotoxicity against HEK293T cells assessed as reduction in cell viability after 48 hrs by MTS assay; assay type: cell-based, HEK-293T; settings: human
[17] = tested on: Staphylococcus epidermidis; assay: Antibacterial activity against methicillin-sensitive Staphylococcus epidermidis 12-6 after 18 hrs by CLSI broth microdilution method; assay type: functional; settings: 12-6, 18 h
Staphylococcus aureus [18] = assay: Antibacterial activity against methicillin-resistant Staphylococcus aureus ATCC 33591 after 18 hrs by CLSI broth microdilution method; assay type: functional; settings: ATCC 33591, 18 h
Staphylococcus aureus [19] = assay: Antibacterial activity against methicillin-sensitive Staphylococcus aureus 15 after 18 hrs by CLSI broth microdilution method; assay type: functional; settings: Staphylococcus aureus, 15, 18 h
Staphylococcus aureus [20] = assay: Antibacterial activity against methicillin-sensitive Staphylococcus aureus 12-28 after 18 hrs by CLSI broth microdilution method; assay type: functional; settings: 12-28, 18 h
Enterococcus faecalis [21] = assay: Antibacterial activity against vancomycin-resistant Enterococcus faecalis ATCC 51299 after 18 hrs by CLSI broth microdilution method; assay type: functional; settings: ATCC 51299, 18 h
Enterococcus faecalis [22] = assay: Antibacterial activity against vancomycin-sensitive Enterococcus faecalis 12-5 after 18 hrs by CLSI broth microdilution method; assay type: functional; settings: 12-5, 18 h
Enterococcus faecium [23] = assay: Antibacterial activity against vancomycin-resistant Enterococcus faecium 12-1 after 18 hrs by CLSI broth microdilution method; assay type: functional; settings: 12-1, 18 h
Escherichia coli [24] = assay: Antibacterial activity against extended-spectrum beta-lactamase deficient Escherichia coli 1515 after 18 hrs by CLSI broth microdilution method; assay type: functional; settings: Escherichia coli, 1515, 18 h
Escherichia coli [25] = assay: Antibacterial activity against extended-spectrum beta-lactamase deficient Escherichia coli 12-14 after 18 hrs by CLSI broth microdilution method; assay type: functional; settings: 12-14, 18 h
Klebsiella pneumoniae [26] = assay: Antibacterial activity against extended-spectrum beta-lactamase deficient Klebsiella pneumoniae 7 after 18 hrs by CLSI broth microdilution method; assay type: functional; settings: Klebsiella pneumoniae, 7, 18 h
Klebsiella pneumoniae [27] = assay: Antibacterial activity against extended-spectrum beta-lactamase deficient Klebsiella pneumoniae 12-4 after 18 hrs by CLSI broth microdilution method; assay type: functional; settings: 12-4, 18 h
Pseudomonas aeruginosa [28] = assay: Antibacterial activity against Pseudomonas aeruginosa PAO1 after 18 hrs by CLSI broth microdilution method; assay type: functional; settings: PAO1, 18 h
Pseudomonas aeruginosa [29] = assay: Antibacterial activity against Pseudomonas aeruginosa 12-16 after 18 hrs by CLSI broth microdilution method; assay type: functional; settings: 12-16, 18 h
Klebsiella aerogenes = assay: Antibacterial activity against Enterobacter aerogenes ATCC 13048 after 18 hrs by CLSI broth microdilution method; assay type: functional; settings: ATCC 13048, 18 h
Serratia marcescens = assay: Antibacterial activity against Serratia marcescens ATCC 21074 after 18 hrs by CLSI broth microdilution method; assay type: functional; settings: ATCC 21074, 18 h
Providencia rettgeri = assay: Antibacterial activity against Providencia rettgeri ATCC 31052 after 18 hrs by CLSI broth microdilution method; assay type: functional; settings: ATCC 31052, 18 h
Proteus vulgaris = assay: Antibacterial activity against Proteus vulgaris ATCC 29905 after 18 hrs by CLSI broth microdilution method; assay type: functional; settings: ATCC 29905, 18 h
[30] = tested on: Stenotrophomonas maltophilia; assay: Antibacterial activity against Stenotrophomonas maltophilia ATCC 13636 after 18 hrs by CLSI broth microdilution method; assay type: functional; settings: ATCC 13636, 18 h
Citrobacter freundii = assay: Antibacterial activity against Citrobacter freundii ATCC 43864 after 18 hrs by CLSI broth microdilution method; assay type: functional; settings: ATCC 43864, 18 h

| Structure (SMILES) | MIC [1] | MIC [2] | MIC (Staphylococcus aureus [3]) | MIC (Staphylococcus aureus [4]) | MIC (Enterococcus faecalis [5]) | MIC (Enterococcus faecalis [6]) | MIC (Enterococcus faecium [7]) | MIC (Enterococcus faecium [8]) | MIC (Escherichia coli [9]) | MIC (Escherichia coli [10]) | MIC (Klebsiella pneumoniae [11]) | MIC (Klebsiella pneumoniae [12]) | MIC (Klebsiella pneumoniae [13]) | MIC (Pseudomonas aeruginosa [14]) | MIC [15] | MIC (Enterobacter cloacae) | MIC (Proteus mirabilis) | CC50 at 48 h [16] | MIC [17] | MIC (Staphylococcus aureus [18]) | further results |
| --- | --- | --- | --- | --- | --- | --- | --- | --- | --- | --- | --- | --- | --- | --- | --- | --- | --- | --- | --- | --- | --- |
| CC(C)NC(=N)c1ccc2cc(-c3ccc(-c4cc5ccc(C(=N)NC(C)C)cc5[nH]4)cc3)[nH]c2c1 | 0.125 µg/mL (≈ 0.262 µM) | 0.125 µg/mL (≈ 0.262 µM) | 0.125 µg/mL (≈ 0.262 µM) | 0.125 µg/mL (≈ 0.262 µM) | 0.25 µg/mL (≈ 0.525 µM) | 0.25 µg/mL (≈ 0.525 µM) | 0.25 µg/mL (≈ 0.525 µM) | 0.25 µg/mL (≈ 0.525 µM) | 2 µg/mL (≈ 4.2 µM) | 2 µg/mL (≈ 4.2 µM) | 8 µg/mL (≈ 16.8 µM) | 4 µg/mL (≈ 8.39 µM) | 2 µg/mL (≈ 4.2 µM) | 2 µg/mL (≈ 4.2 µM) | 16 µg/mL (≈ 33.6 µM) | 4 µg/mL (≈ 8.39 µM) | 16 µg/mL (≈ 33.6 µM) | 12.3 µg/mL (≈ 25.8 µM) | 0.125 µg/mL (≈ 0.262 µM) | 0.125 µg/mL (≈ 0.262 µM) | MIC (Staphylococcus aureus [19]): 0.125 µg/mL (≈ 0.262 µM); MIC (Staphylococcus aureus [20]): 0.125 µg/mL (≈ 0.262 µM); MIC (Enterococcus faecalis [21]): 0.25 µg/mL (≈ 0.525 µM); MIC (Enterococcus faecalis [22]): 0.5 µg/mL (≈ 1.05 µM); MIC (Enterococcus faecium [23]): 0.25 µg/mL (≈ 0.525 µM); MIC (Escherichia coli [24]): 4 µg/mL (≈ 8.39 µM); MIC (Escherichia coli [25]): 4 µg/mL (≈ 8.39 µM); MIC (Klebsiella pneumoniae [26]): 2 µg/mL (≈ 4.2 µM); MIC (Klebsiella pneumoniae [27]): 2 µg/mL (≈ 4.2 µM); MIC (Pseudomonas aeruginosa [28]): 4 µg/mL (≈ 8.39 µM); MIC (Pseudomonas aeruginosa [29]): 8 µg/mL (≈ 16.8 µM); MIC (Klebsiella aerogenes): 4 µg/mL (≈ 8.39 µM); MIC (Serratia marcescens): 8 µg/mL (≈ 16.8 µM); MIC (Providencia rettgeri): 4 µg/mL (≈ 8.39 µM); MIC (Proteus vulgaris): 4 µg/mL (≈ 8.39 µM); MIC [30]: 4 µg/mL (≈ 8.39 µM); MIC (Citrobacter freundii): 2 µg/mL (≈ 4.2 µM) |
| CNC(=N)c1ccc2cc(-c3cncc(-c4cc5ccc(C(=N)NC)cc5[nH]4)c3)[nH]c2c1 | 4 µg/mL (≈ 9.49 µM) | 8 µg/mL (≈ 19 µM) | > 64 µg/mL | > 64 µg/mL | > 64 µg/mL | > 64 µg/mL | > 64 µg/mL | > 64 µg/mL | > 64 µg/mL | > 64 µg/mL | > 64 µg/mL | > 64 µg/mL | > 64 µg/mL | > 64 µg/mL | > 64 µg/mL | > 64 µg/mL | > 64 µg/mL | > 100 µg/mL | 8 µg/mL (≈ 19 µM) | > 64 µg/mL | MIC (Staphylococcus aureus [19]): > 64 µg/mL; MIC (Staphylococcus aureus [20]): > 64 µg/mL; MIC (Enterococcus faecalis [21]): > 64 µg/mL; MIC (Enterococcus faecalis [22]): > 64 µg/mL; MIC (Enterococcus faecium [23]): > 64 µg/mL; MIC (Escherichia coli [24]): > 64 µg/mL; MIC (Escherichia coli [25]): > 64 µg/mL; MIC (Klebsiella pneumoniae [26]): > 64 µg/mL; MIC (Klebsiella pneumoniae [27]): > 64 µg/mL; MIC (Pseudomonas aeruginosa [28]): > 64 µg/mL; MIC (Pseudomonas aeruginosa [29]): > 64 µg/mL; MIC (Klebsiella aerogenes): > 64 µg/mL; MIC (Serratia marcescens): > 64 µg/mL; MIC (Providencia rettgeri): > 64 µg/mL; MIC (Proteus vulgaris): > 64 µg/mL; MIC [30]: > 64 µg/mL; MIC (Citrobacter freundii): > 64 µg/mL |
| N=C(c1ccc2cc(-c3ccc(-c4cc5ccc(C(=N)N6CC=CC6)cc5[nH]4)cc3)[nH]c2c1)N1CC=CC1 | 1 µg/mL (≈ 2.01 µM) | 4 µg/mL (≈ 8.05 µM) | 4 µg/mL (≈ 8.05 µM) | 4 µg/mL (≈ 8.05 µM) | 8 µg/mL (≈ 16.1 µM) | 8 µg/mL (≈ 16.1 µM) | 16 µg/mL (≈ 32.2 µM) | 16 µg/mL (≈ 32.2 µM) | 8 µg/mL (≈ 16.1 µM) | 8 µg/mL (≈ 16.1 µM) | 32 µg/mL (≈ 64.4 µM) | 8 µg/mL (≈ 16.1 µM) | 16 µg/mL (≈ 32.2 µM) | > 128 µg/mL | 32 µg/mL (≈ 64.4 µM) | 8 µg/mL (≈ 16.1 µM) | 64 µg/mL (≈ 129 µM) | 12.4 µg/mL (≈ 24.9 µM) | 2 µg/mL (≈ 4.03 µM) | 2 µg/mL (≈ 4.03 µM) | MIC (Staphylococcus aureus [19]): 4 µg/mL (≈ 8.05 µM); MIC (Staphylococcus aureus [20]): 4 µg/mL (≈ 8.05 µM); MIC (Enterococcus faecalis [21]): 8 µg/mL (≈ 16.1 µM); MIC (Enterococcus faecalis [22]): 8 µg/mL (≈ 16.1 µM); MIC (Enterococcus faecium [23]): 16 µg/mL (≈ 32.2 µM); MIC (Escherichia coli [24]): 16 µg/mL (≈ 32.2 µM); MIC (Escherichia coli [25]): 16 µg/mL (≈ 32.2 µM); MIC (Klebsiella pneumoniae [26]): 8 µg/mL (≈ 16.1 µM); MIC (Klebsiella pneumoniae [27]): 16 µg/mL (≈ 32.2 µM); MIC (Pseudomonas aeruginosa [28]): > 128 µg/mL; MIC (Pseudomonas aeruginosa [29]): > 128 µg/mL; MIC (Klebsiella aerogenes): 8 µg/mL (≈ 16.1 µM); MIC (Serratia marcescens): > 128 µg/mL; MIC (Providencia rettgeri): 16 µg/mL (≈ 32.2 µM); MIC (Proteus vulgaris): 32 µg/mL (≈ 64.4 µM); MIC [30]: 32 µg/mL (≈ 64.4 µM); MIC (Citrobacter freundii): 8 µg/mL (≈ 16.1 µM) |

Reference: ChEMBL document CHEMBL4229379, “Synthesis and structure-activity relationship of novel bisindole amidines active against MDR Gram-positive and Gram-negative bacteria” (Eur J Med Chem, 2018)
